Data published in patent US20100119483A1, “PEPTIDE VIRAL ENTRY INHIBITORS” (Schering Corporation, priority 2004, published 2010).
“And” between values parts separate entries of the source, which are not always exact repeats. Equal values may be shown once.

How the values were obtained:
[1] = system: amphotropic murine leukemia virus; experiment: AMLV pseudotyped virus entry counter-screen, same infection protocol; type: cell-based; conditions: for AMLVpp % inh: peptide library screen, cell entry inhibition vs uninhibited control; for luciferase units, AMLV entry: duplicates
Method: Infection of hepatoma cell lines with HCV pseudotype particles and screen for inhibitory peptides. The hepatoma cells, Huh7, was seeded at 8000 cells in 90 ul medium in 96-well plate. In the case of the inhibitor screen, the inhibitor was incubated with cells for one hour at 37° C. and then 50 ul viral supernatant was added to the cells 24 hours after seeding. The viral stock was pre-tittered and diluted to yield approximately 10,000 to 20,000 RLU. The cells were incubated at 37° C. with 5% CO2 for additional 72 hours and were harvested for luciferase assay. Peptide stocks were prepared in 100% DMSO at 10 mg/ml and were first screened at 100 ug/ml and then a dose responsive curve was generated with 10 points 3-fold titration starting from 100 ug/ml.
The specificity of the peptides were counter-screened with AMLV and HIV pseudotyped viruses using the same infection protocol.

HCV pseudoparticles = experiment: HCV pseudoparticle (HCVpp) entry assay in Huh7 hepatoma cells, luciferase readout; type: cell-based, hepatitis C virus; conditions: for luciferase units, HCV entry: duplicates; for % of control at ~30 uM: percentage of hepatitis C virus cellular entry at 30 μM peptide vs uninhibited control
Method in brief: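 Huh7 cells were pre-treated with peptide for 1 h at 37 °C before exposure to HCV E1/E2-pseudotyped HIV luciferase particles made in 293T cells, followed by 72 h culture and luciferase readout. Peptides were tested at 10 points, 3-fold, from 100 ug/ml; particles lacking envelope served as non-specific entry control.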

[2] = peptide library screen, first screened at 100 ug/ml, cell entry inhibition vs uninhibited control
[3] = 0.01371742 uM of peptide (three lines)
[4] = 0.1 nM of peptide (printed for three rows), two values per peptide and row
[5] = 0.3 nM of peptide, two values per peptide
[6] = 1 nM of peptide, two values per peptide
[7] = 3 nM of peptide, two values per peptide
[8] = 10 nM of peptide, two values per peptide
[9] = 30 nM of peptide, two values per peptide
[10] = 100 nM of peptide, two values per peptide
[11] = 300 nM of peptide, two values per peptide
[12] = 10000 nM of peptide, two values per peptide
[13] = 30000 nM of peptide, two values per peptide

For “E-A-T-Y-T-K-C-G-S-G-P-W-L-T-P-R (EATYTKCGSGPWLTPR; HCV peptide) [SEQ ID NO: 60]”, the AMLVpp % inh [1] was 17% and the HCVpp % inh (HCV pseudoparticles; [2]) was 13%.
In the case of “L-P-A-L-S-T-G-L-I-H-L-H-Q-N-V-V [SEQ ID NO: 73]”, the AMLVpp % inh [1] is reported as 0% and the HCVpp % inh (HCV pseudoparticles; [2]) is reported as 19%.
In the case of “A-I-K-W-E-Y-V-L-L-L-F-L-L [SEQ ID NO: 86]”, the “luciferase units, AMLV entry” value [1, 3] is reported as 42295 luciferase units and 44556 luciferase units and 43059 luciferase units and 48854 luciferase units and 37783 luciferase units and 49462 luciferase units, the “luciferase units, AMLV entry” value ([1]; 0.04115226 uM of peptide) is reported as 42084 luciferase units and 47952 luciferase units and the “luciferase units, AMLV entry” value ([1]; 0.1234568 uM of peptide) is reported as 37163 luciferase units and 47412 luciferase units. For the same substance, the “luciferase units, AMLV entry” value ([1]; 0.3703704 uM of peptide) was 43543 luciferase units and 47987 luciferase units, the “luciferase units, AMLV entry” value ([1]; 1.111111 uM of peptide) was 40296 luciferase units and 43593 luciferase units and the “luciferase units, AMLV entry” value ([1]; 3.333333 uM of peptide) was 53350 luciferase units and 39047 luciferase units. The “luciferase units, AMLV entry” value ([1]; 10 uM of peptide) was 70573 luciferase units and 72462 luciferase units, the “luciferase units, AMLV entry” value ([1]; 30 uM of peptide) was 76174 luciferase units and 71333 luciferase units and the “% control (HCVpp entry), alanine scanning” value (“% control … alanine scanning” below) (HCV pseudoparticles; [4]) was 86 % control and 90 % control and 87 % control and 103 % control and 108 % control. The “% control … alanine scanning” value (HCV pseudoparticles; [5]) was 96 % control and 133 % control, the “% control … alanine scanning” value (HCV pseudoparticles; [6]) was 80 % control and 102 % control and the “% control … alanine scanning” value (HCV pseudoparticles; [7]) was 90 % control and 118 % control. For the same substance, the “% control … alanine scanning” value (HCV pseudoparticles; [8]) was 69 % control and 67 % control, the “luciferase units, HCV entry” value (HCV pseudoparticles; [3]) was 10981 luciferase units and 12701 luciferase units and 17159 luciferase units and 18427 luciferase units and 19121 luciferase units and 16287 luciferase units and the “% control … alanine scanning” value (HCV pseudoparticles; [9]) was 59 % control and 60 % control. The “luciferase units, HCV entry” value (HCV pseudoparticles; 0.04115226 uM of peptide) was 8349 luciferase units and 8612 luciferase units, the “% control … alanine scanning” value (HCV pseudoparticles; [10]) was 48 % control and 33 % control and the “luciferase units, HCV entry” value (HCV pseudoparticles; 0.1234568 uM of peptide) was 6445 luciferase units and 3869 luciferase units. The “% control … alanine scanning” value (HCV pseudoparticles; [11]) was 25 % control and 30 % control, the “luciferase units, HCV entry” value (HCV pseudoparticles; 0.3703704 uM of peptide) was 5748 luciferase units and 3127 luciferase units and the “luciferase units, HCV entry” value (HCV pseudoparticles; 1.111111 uM of peptide) was 3652 luciferase units and 3574 luciferase units. The “luciferase units, HCV entry” value (HCV pseudoparticles; 3.333333 uM of peptide) was 2746 luciferase units and 2356 luciferase units, the “% control … alanine scanning” value (HCV pseudoparticles; [12]) was 27 % control and 25 % control and the “luciferase units, HCV entry” value (HCV pseudoparticles; 30 uM of peptide) was 1899 luciferase units and 1645 luciferase units. The “% control … alanine scanning” value (HCV pseudoparticles; [13]) was 15 % control and 27 % control and the “% of control at ~30 uM” value (HCV pseudoparticles) was 13%.
“N-W-A-K-V-L-I-V-M-L-L-F-A-G-V-D [SEQ ID NO: 28]” showed an AMLVpp % inh [1] of −1% and an HCVpp % inh (HCV pseudoparticles; [2]) of 13%.
In the case of “A-I-A-W-E-Y-V-L-L-L-F-L-L (AIAWEYVLLLFLL; HCV peptide) [SEQ ID NO: 88, Ala-scan]”, the “% control … alanine scanning” value (HCV pseudoparticles; [4]) is reported as 96 % control and 85 % control and 87 % control and 108 % control and 109 % control, the “% control … alanine scanning” value (HCV pseudoparticles; [5]) is reported as 91 % control and 101 % control and the “% control … alanine scanning” value (HCV pseudoparticles; [6]) is reported as 100 % control and 69 % control. For the same substance, the “% control … alanine scanning” value (HCV pseudoparticles; [7]) was 81 % control and 93 % control, the “% control … alanine scanning” value (HCV pseudoparticles; [8]) was 56 % control and 60 % control and the “% control … alanine scanning” value (HCV pseudoparticles; [9]) was 53 % control and 66 % control. The “% control … alanine scanning” value (HCV pseudoparticles; [10]) was 37 % control and 57 % control, the “% control … alanine scanning” value (HCV pseudoparticles; [11]) was 42 % control and 45 % control and the “% control … alanine scanning” value (HCV pseudoparticles; [12]) was 27 % control and 32 % control. The “% of control at ~30 uM” value (HCV pseudoparticles) was 9%.
In the case of “A-I-K-W-E-Y-V-L-L-L-F-L-K [SEQ ID NO: 137]”, the “% control (HCVpp entry), lysine scanning” value (HCV pseudoparticles; [4]) is reported as 72 % control and 123 % control and 80 % control and 82 % control and 103 % control and 135 % control, the “% control (HCVpp entry), lysine scanning” value (HCV pseudoparticles; [5]) is reported as 58 % control and 92 % control and the “% control (HCVpp entry), lysine scanning” value (HCV pseudoparticles; [6]) is reported as 80 % control and 106 % control. The “% control (HCVpp entry), lysine scanning” value (HCV pseudoparticles; [7]) was 82 % control and 97 % control, the “% control (HCVpp entry), lysine scanning” value (HCV pseudoparticles; [8]) was 100 % control and 89 % control and the “% control (HCVpp entry), lysine scanning” value (HCV pseudoparticles; [9]) was 78 % control and 94 % control. The “% control (HCVpp entry), lysine scanning” value (HCV pseudoparticles; [10]) was 68 % control and 74 % control, the “% control (HCVpp entry), lysine scanning” value (HCV pseudoparticles; [11]) was 54 % control and 77 % control and the “% control (HCVpp entry), lysine scanning” value (HCV pseudoparticles; [12]) was 23 % control and 28 % control.
Work on “F-A-I-K-W-E-Y-V-L-L-L-F-L-L [SEQ ID NO: 105]” yielded an HCVpp % inh (HCV pseudoparticles; truncated peptides tested at 50 uM in 1% DMSO) of 95%.
With “A-I-P-W-E-Y-V-L-L-L-F-L-L (AIPWEYVLLLFLL; HCV peptide) [SEQ ID NO: 117]” the “% control (HCVpp entry), proline scanning” value (from here on “% control … proline scanning”) (HCV pseudoparticles; [5]) was 66 % control and 117 % control, the “% control … proline scanning” value (HCV pseudoparticles; [6]) was 68 % control and 87 % control and the “% control … proline scanning” value (HCV pseudoparticles; [7]) was 89 % control and 66 % control. The “% control … proline scanning” value (HCV pseudoparticles; [8]) was 75 % control, the “% control … proline scanning” value (HCV pseudoparticles; [9]) was 58 % control and 71 % control and the “% control … proline scanning” value (HCV pseudoparticles; [10]) was 38 % control and 54 % control. For the same substance, the “% control … proline scanning” value (HCV pseudoparticles; [11]) was 48 % control and 41 % control and the “% control … proline scanning” value (HCV pseudoparticles; [12]) was 54 % control and 31 % control.
With “A-I-K-W-E-Y-V-A-L-L-F-L-L (AIKWEYVALLFLL; HCV peptide) [SEQ ID NO: 93, Ala-scan]” the “% control … alanine scanning” value (HCV pseudoparticles; [4]) was 91 % control and 83 % control and 80 % control and 104 % control and 134 % control and 81 % control, the “% control … alanine scanning” value (HCV pseudoparticles; [5]) was 86 % control and 105 % control and the “% control … alanine scanning” value (HCV pseudoparticles; [6]) was 85 % control and 87 % control. For the same substance, the “% control … alanine scanning” value (HCV pseudoparticles; [7]) was 78 % control and 87 % control, the “% control … alanine scanning” value (HCV pseudoparticles; [8]) was 71 % control and 67 % control and the “% control … alanine scanning” value (HCV pseudoparticles; [9]) was 58 % control and 51 % control. For the same substance, the “% control … alanine scanning” value (HCV pseudoparticles; [10]) was 47 % control and 42 % control, the “% control … alanine scanning” value (HCV pseudoparticles; [11]) was 32 % control and 27 % control and the “% control … alanine scanning” value (HCV pseudoparticles; [12]) was 41 % control and 32 % control. The “% control … alanine scanning” value (HCV pseudoparticles; [13]) was 32 % control and the “% of control at ~30 uM” value (HCV pseudoparticles) was 13%.
With “A-I-K-W-P-Y-V-L-L-L-F-L-L (AIKWPYVLLLFLL; HCV peptide) [SEQ ID NO: 119]” the “% control … proline scanning” value (HCV pseudoparticles; [4]) was 93 % control and 76 % control and 87 % control and 85 % control and 102 % control and 126 % control, the “% control … proline scanning” value (HCV pseudoparticles; [5]) was 78 % control and 77 % control and the “% control … proline scanning” value (HCV pseudoparticles; [6]) was 72 % control and 68 % control. The “% control … proline scanning” value (HCV pseudoparticles; [7]) was 94 % control and 62 % control, the “% control … proline scanning” value (HCV pseudoparticles; [8]) was 54 % control and 48 % control and the “% control … proline scanning” value (HCV pseudoparticles; [10]) was 40 % control and 46 % control. The “% control … proline scanning” value (HCV pseudoparticles; [11]) was 40 % control and 47 % control and the “% control … proline scanning” value (HCV pseudoparticles; [13]) was 28 % control and 17 % control.
